The results in this text go back to patent publication US20050123902A1, “Human papillomavirus inhibitors” (priority 2003, published 2005).

The structures appear in SMILES notation.

This assay deals with HPV-16 E2 protein (Human papillomavirus type 16, UniProt P03120). The assay is described as follows: Determination of dissociation constants by surface plasmon resonance (Biacore 3000, captured GST-E2 fusion). Type of assay: binding. To be noted: steady state model, PBST containing 2% (v/v) DMF, read-out: dissociation constant. The procedure:
Surface Plasmon Resonance Instrument. Surface plasmon resonance experiments were performed with a Biacore® 3000 Biosensor (Biacore AB, Uppsala, Sweden). To keep the instrument in good working condition, a series of washing steps were performed on a weekly basis. In addition to the prescribed maintenance washes, the fluidic system was primed three times in a row with the following reagents: 0.5% (w/v) SDS, 6 M urea, 1% (v/v) acetic acid, and 0.2 M NaHCO3. When not in use, a standby program injects water at a flow rate of 5 μL/minute to prevent salt build-up in the lines or integrated fluidic cartridge. Whenever running buffer was changed, the system was primed three times in order to equilibrate the sensor chip and the instrument.
Immobilization of anti-GST Antibody. A CM5 sensor chip was docked and the system was primed three times with filtered and degassed PBST containing 5% (v/v) DMF. Affinity purified and sterile filtered goat-anti-GST IgG (0.8 mg/mL in 150 mM NaCl) from the Biacore GST kit for fusion capture was diluted to 30 μg/mL in 10 mM sodium acetate, pH 5.0 (100 μL per immobilization). Two flow cells were activated with 1:1 NHS:EDC (N-hydroxysuccinimide:[…]) for 8 minutes at a flow rate of 5 μL/min using the “surface preparation: immobilization: amine coupling” wizard application. […]
(In general: SPR reads the build-up and loss of mass on a sensor chip optically.)

HPV-16 E2 protein, sequence (P03120 whole entry, the tested form may be a part): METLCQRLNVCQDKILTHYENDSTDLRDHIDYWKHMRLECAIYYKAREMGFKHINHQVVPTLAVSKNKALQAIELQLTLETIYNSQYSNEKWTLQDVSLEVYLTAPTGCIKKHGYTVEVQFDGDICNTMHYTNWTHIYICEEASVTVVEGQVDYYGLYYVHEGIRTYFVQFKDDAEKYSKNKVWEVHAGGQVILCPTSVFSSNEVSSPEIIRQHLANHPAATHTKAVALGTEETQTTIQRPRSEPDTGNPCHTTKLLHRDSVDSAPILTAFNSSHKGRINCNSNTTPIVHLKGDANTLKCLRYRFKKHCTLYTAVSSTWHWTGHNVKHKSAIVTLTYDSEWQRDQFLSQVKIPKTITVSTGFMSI

Take `Cn1nnnc1SC[C@@H]1C[C@H](c2ccc(CO)cc2)O[C@H](c2ccc(CN)cc2)O1` [compound 2]: the Kd is 2.7 nM.
